# Reference: patent publication EP0588622B1, “Bleach composition” (UNILEVER PLC, priority 1992, dated 1994)
# Read-outs that look alike come from different tables or passages of the source.
# Assays:
# [1] = peroxyacid solution 0.000525 moles/l plus EDTA, 22-24°C, 30 minutes
# [2] = pKa determination by sodium hydroxide titration of peroxyacid solution
# [3] = Dye damage in tergotometer wash at pH 9 (Example VII), diacetate; settings: diacetate dyed with CI disperse 14; pH 9, 40°C, 30 minutes, peroxyacid 9.2x10^-4 mole/l
# [4] = Dye damage in tergotometer wash at pH 9 (Example VII), triacetate; settings: triacetate dyed with CI disperse 14; pH 9, 40°C, 30 minutes, peroxyacid 9.2x10^-4 mole/l
# [5] = Dye damage in tergotometer wash at pH 9 (Example VII), nylon 6,6; settings: nylon 6,6 dyed with CI disperse 14; pH 9, 40°C, 30 minutes, peroxyacid 9.2x10^-4 mole/l
# [6] = Dye damage in tergotometer wash with detergent base at pH 6 to 10 (Example III); settings: peroxyacid 9.2x10^-4 mole/l, detergent base 4 g/l, 40°C, 30 minutes
# [7] = physchem
# [8] = Stain bleaching, visual assessment of stained cloths after tergotometer wash (Example V); settings: for Ranking: score 1 smallest, 4 greatest cleaning benefit, peroxyacid 9.2x10^-4 mol l^-1, 40°C, 30 minutes
# [9] = Tea stain bleaching, difference in reflectance at 460 nm before and after washing (Example VI); settings: 40°C, 30 minutes
# Procedure: The stain bleaching performance was measured by determining the difference ([…]) in %reflectance of cloths at 460 nm before and after washing. […] This was carried out in a tergotometer at 40°C, washing for 30 minutes. Cloths were washed in 450 ml 18°FH water with 1.8 g NSPA base powder and peroxyacid included at 9.2x10^-4 mol l^-1. Two series of experiments were carried out; one at pH 6 where the peracid is largely in its undissociated form and one above the peracid pKa, at pH 9. A stained piece of fabric measuring 8x8 cm was cut into four such that each quarter would be washed under one of each of the four experimental conditions. The method as in example V was used in determining the tea stain bleaching effect of sterically hindered hydrophobic peroxyacids, the differences being that 3 replicates were used, the reflectance was measured before and after washing, tests were done over a pH range of from 6 to 10 and 4 g/l NSPA base powder was used.
structure (smiles),measurement,setting,value
O=C(OO)C1CC2CCC1C2 (stereo not drawn) [Norbornane-endo-2-Percarboxylic],% dye damage,[1],7.0%
same,pKa,[2],8.15
"CC(CC(=O)OO)CC(C)(C)C (centres unmarked) [iso-pernonanoic, peroxy-3,5,5-trimethylhexanoic acid]",% dye damage,[3],25%
same,pKa,[2],8.1
same,% dye damage,[4],23%
same,% dye damage,[5],11%
CC1(C(=O)OO)CC2CCC1C2 (stereo not drawn) [2 methylnorbornane-endo-2-percaboxylic],% dye damage,[1],5.6%
same,pKa,[2],8.2
"CCCCc1ccc(C(=O)OO)cc1 [p-bu^n perbenzoic, reference compound]",% dye damage,[1],39.6%
same,pKa,[2],8
"CCCCCCCCC(=O)OO [n-pernonanoic, n-pernonanoic acid]",% DYE DAMAGE,[6]; pH 6,70.4%
same,% DYE DAMAGE,[6]; pH 7,67.9%
same,% DYE DAMAGE,[6]; pH 8,63.7%
same,% DYE DAMAGE,[6]; pH 9,37.2%
same,% DYE DAMAGE,[6]; pH 10,15.0%
same,% dye damage,[3],82%
same,pKa,[2],8.1
same,% dye damage,[4],85%
same,% dye damage,[5],52%
"CC(C)(C)c1ccc(C(=O)OO)cc1 [p-bu^t perbenzoic, p-t-butylperbenzoic acid]",% dye damage,[1],19.6%
same,pKa,[7],7.98
"O=C(OO)C1CC2CCC1C2 (centres unmarked) [NBC, Norbornane 2-peroxyacid]",Ranking,[8]; Washes at pH 9,2
same,Ranking,[8]; Washes pH 6,2
CC1C2CCC(C2)C1C(=O)OO (stereo not drawn) [Trans-3-Methyl norbornane-endo-2-percaboxylic],% dye damage,[1],8.2%
same,pKa,[2],8.15
"O=C(OO)C12CC3CC(CC(C3)C1)C2 [Peradamantoic, Peradamantoic acid]",TEA STAIN BLEACHING ΔR460NM,"[9]; pH 6, 4 g/l NSPA base powder",13.2
same,TEA STAIN BLEACHING ΔR460NM,"[9]; pH 7, 4 g/l NSPA base powder",16.9
same,TEA STAIN BLEACHING ΔR460NM,"[9]; pH 8, 4 g/l NSPA base powder",17.3
same,TEA STAIN BLEACHING ΔR460NM,"[9]; pH 9, 4 g/l NSPA base powder",13.1
same,TEA STAIN BLEACHING ΔR460NM,"[9]; pH 10, 4 g/l NSPA base powder",3.6
same,% dye damage,[1],11.2%
same,pKa,[2],7.95
same,Ranking,[8]; Washes at pH 9,4
same,Ranking,[8]; Washes pH 6,4
same,removal of the stain,"[8]; black biro stain, both at pH 6 and 9",almost complete removal of the stain
